# Measurements taken from US9833497B2, “Human originated EGF domain proteins and use of the same” (CHENGDU SOURCEBIO LIMITED-LIABILITY COMPANY, priority 2013, dated 2017).
# Test system: Citrobacter diversus
# Assay: MIC against Gram-negative bacteria: Citrobacter diversus
# Type: cell-based
# Settings: C. diversus; 10 h cultivation at 37° C.; 5×10^5 CFU/mL
# Method in brief: (§1)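 LB broth cultures at McFarland 0.5, spun down, resuspended, diluted to 5×10^5 CFU/mL final. Two-fold serial dilutions of purified human EGF domain proteins, triplicate. 37° C, 175 rpm shaking. Endpoint: no visible growth.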
row,Substance,MIC (μg/mL) C. diversus [µg/mL]
1,PRT878 (ADPLCAPARNPCANGGLCTVLAPGEVGCDCSHTGFGGKFCS; listed as Homo sapiens),12.5
2,PRT799 (FHACSCHNGASCSAEDGACHCTPGWTGLFCT; listed as Homo sapiens),12.5
3,PRT218 (DINECDASNQCAQQCYNILGSFICQCNQGYELSSDRLNCE; listed as Homo sapiens),25

# Test system: Proteus vulgaris
# Assay: MIC against Gram-negative bacteria: Proteus vulgaris
# Type: cell-based
# Settings: P. vulgaris; 10 h cultivation at 37° C.; 5×10^5 CFU/mL
# Method in brief: as §1
row,Substance,MIC (μg/mL) P. vulgaris [µg/mL]
1,PRT878 (ADPLCAPARNPCANGGLCTVLAPGEVGCDCSHTGFGGKFCS; listed as Homo sapiens),25
2,PRT799 (FHACSCHNGASCSAEDGACHCTPGWTGLFCT; listed as Homo sapiens),50
3,PRT218 (DINECDASNQCAQQCYNILGSFICQCNQGYELSSDRLNCE; listed as Homo sapiens),50

# Test system: Proteus mirabilis
# Assay: MIC against Gram-negative bacteria: Proteus mirabilis
# Type: cell-based
# Settings: P. mirabilis; 10 h cultivation at 37° C.; 5×10^5 CFU/mL
# Method in brief: as §1
row,Substance,MIC (μg/mL) P. mirabilis [µg/mL]
1,PRT878 (ADPLCAPARNPCANGGLCTVLAPGEVGCDCSHTGFGGKFCS; listed as Homo sapiens),50
2,PRT799 (FHACSCHNGASCSAEDGACHCTPGWTGLFCT; listed as Homo sapiens),12.5
3,PRT218 (DINECDASNQCAQQCYNILGSFICQCNQGYELSSDRLNCE; listed as Homo sapiens),25

# Test system: Enterobacter cloacae
# Assay: MIC against Gram-negative bacteria: Enterobacter cloacae
# Type: cell-based
# Settings: E. cloacae; 10 h cultivation at 37° C.; 5×10^5 CFU/mL
# Method in brief: as §1
row,Substance,MIC (μg/mL) E. cloacae [µg/mL]
1,PRT878 (ADPLCAPARNPCANGGLCTVLAPGEVGCDCSHTGFGGKFCS; listed as Homo sapiens),12.5
2,PRT799 (FHACSCHNGASCSAEDGACHCTPGWTGLFCT; listed as Homo sapiens),5
3,PRT218 (DINECDASNQCAQQCYNILGSFICQCNQGYELSSDRLNCE; listed as Homo sapiens),25

# Test system: E. coli BL21
# Assay: MIC against Gram-negative bacteria: E. coli BL21
# Type: cell-based
# Settings: E. coli BL21; 10 h cultivation at 37° C.; 5×10^5 CFU/mL
# Method in brief: as §1
row,Substance,MIC (μg/mL) E. coli BL21 [µg/mL]
1,PRT878 (ADPLCAPARNPCANGGLCTVLAPGEVGCDCSHTGFGGKFCS; listed as Homo sapiens),25
2,PRT799 (FHACSCHNGASCSAEDGACHCTPGWTGLFCT; listed as Homo sapiens),12.5
3,PRT218 (DINECDASNQCAQQCYNILGSFICQCNQGYELSSDRLNCE; listed as Homo sapiens),50

# Test system: Klebsiella pneumonia
# Assay: MIC against Gram-negative bacteria: Klebsiella pneumonia
# Type: cell-based
# Settings: K. pneumonia; 10 h cultivation at 37° C.; 5×10^5 CFU/mL
# Method in brief: as §1
row,Substance,MIC (μg/mL) K. pneumonia [µg/mL]
1,PRT878 (ADPLCAPARNPCANGGLCTVLAPGEVGCDCSHTGFGGKFCS; listed as Homo sapiens),50
2,PRT799 (FHACSCHNGASCSAEDGACHCTPGWTGLFCT; listed as Homo sapiens),12.5
3,PRT218 (DINECDASNQCAQQCYNILGSFICQCNQGYELSSDRLNCE; listed as Homo sapiens),50

# Test system: Moraxella catarrhalis
# Assay: MIC against Gram-negative bacteria: Moraxella catarrhalis
# Type: cell-based
# Settings: M. catarrhalis; 10 h cultivation at 37° C.; 5×10^5 CFU/mL
# Method in brief: as §1
row,Substance,MIC (μg/mL) M. catarrhalis [µg/mL]
1,PRT878 (ADPLCAPARNPCANGGLCTVLAPGEVGCDCSHTGFGGKFCS; listed as Homo sapiens),25
2,PRT799 (FHACSCHNGASCSAEDGACHCTPGWTGLFCT; listed as Homo sapiens),12.5
3,PRT218 (DINECDASNQCAQQCYNILGSFICQCNQGYELSSDRLNCE; listed as Homo sapiens),50

# Test system: Serratia marcescens
# Assay: MIC against Gram-negative bacteria: Serratia marcescens
# Type: cell-based
# Settings: S. marcescens; 10 h cultivation at 37° C.; 5×10^5 CFU/mL
# Method in brief: as §1
row,Substance,MIC (μg/mL) S. marcescens [µg/mL]
1,PRT878 (ADPLCAPARNPCANGGLCTVLAPGEVGCDCSHTGFGGKFCS; listed as Homo sapiens),12.5
2,PRT799 (FHACSCHNGASCSAEDGACHCTPGWTGLFCT; listed as Homo sapiens),25
3,PRT218 (DINECDASNQCAQQCYNILGSFICQCNQGYELSSDRLNCE; listed as Homo sapiens),25

# Test system: Pseudomonas aeruginosa
# Assay: MIC against Gram-negative bacteria: Pseudomonas aeruginosa
# Type: cell-based
# Settings: P. aeruginosa; 10 h cultivation at 37° C.; 5×10^5 CFU/mL
# Method in brief: as §1
row,Substance,MIC (μg/mL) P. aeruginosa [µg/mL]
1,PRT878 (ADPLCAPARNPCANGGLCTVLAPGEVGCDCSHTGFGGKFCS; listed as Homo sapiens),12.5
2,PRT799 (FHACSCHNGASCSAEDGACHCTPGWTGLFCT; listed as Homo sapiens),12.5
3,PRT218 (DINECDASNQCAQQCYNILGSFICQCNQGYELSSDRLNCE; listed as Homo sapiens),50

# Test system: Aeromonas hydrophila
# Assay: MIC against Gram-negative bacteria: Aeromonas hydrophila
# Type: cell-based
# Settings: A. hydrophila; 10 h cultivation at 37° C.; 5×10^5 CFU/mL
# Method in brief: as §1
row,Substance,MIC (μg/mL) A. hydrophila [µg/mL]
1,PRT878 (ADPLCAPARNPCANGGLCTVLAPGEVGCDCSHTGFGGKFCS; listed as Homo sapiens),50
2,PRT799 (FHACSCHNGASCSAEDGACHCTPGWTGLFCT; listed as Homo sapiens),12.5
3,PRT218 (DINECDASNQCAQQCYNILGSFICQCNQGYELSSDRLNCE; listed as Homo sapiens),12.5

# Test system: E. coli DH5α
# Assay: Antibacterial activity: MIC and growth curve against E. coli DH5α in 96-well plate
# Type: cell-based
# Settings: minimal inhibitory concentration against E. coli DH5α; 96-well plate, 5×10^5 CFU/mL, 37° C., judged after 8 h
# Method in brief: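 Log-phase DH5α (OD600 about 0.5, 37° C, 185 rpm in LB) was pelleted, resuspended in fresh LB and seeded at 5×10^5 CFU/mL with recombinant protein at 50, 25 and 12.5 μg/mL (two-fold series), in triplicate. Plates were shaken at 175 rpm, 37° C, and OD600 was read every 30 min. MIC was the lowest concentration with no growth.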
row,Substance,MIC [µg/mL]
1,PRT878 (ADPLCAPARNPCANGGLCTVLAPGEVGCDCSHTGFGGKFCS; listed as Homo sapiens),50
2,PRT799 (FHACSCHNGASCSAEDGACHCTPGWTGLFCT; listed as Homo sapiens),25
3,PRT218 (DINECDASNQCAQQCYNILGSFICQCNQGYELSSDRLNCE; listed as Homo sapiens),100
